Measured values reported in patent US12336540B2, “Method for controlling weeds” (SUMITOMO CHEMICAL COMPANY, LIMITED, priority 2019, dated 2025).
Like-named read-outs stand apart in the source and are kept apart here.

What was measured:
[1] = system: Palmer amaranth, waterhemp, kochia, common ragweed or marestail; conditions: spot foliar treatment of 20% of pot area, 560 g/ha dicamba acid equivalence, 150 L/ha; soybean, corn or cotton seeded immediately after, grown 21 days; compared with plot without crop and plot with uniform blanket treatment at 560 g/ha
Protocol: (§1) The evaluation of the herbicidal efficacy is classified into 0 to 100, where the numeral “0” indicates no or little difference in the state of emergence or growth of weeds under test at the time of examination as compared with untreated weeds, and the numeral “100” indicates the complete death of weeds under test or the complete inhibition of emergence or growth of weeds under test.
A pot is filled with a soil, and then Palmer amaranth, waterhemp, kochia, common ragweed or marestail is seeded at a corner portion of the soil. […] Immediately thereafter, soybean (Genuity Roundup Ready 2 Xtend), corn (Genuity Roundup Ready 2), or cotton (Genuity Roundup Ready 2 Xtend) is seeded in a corner portion different from vegetation patches of weeds in the soil, and grown in the greenhouse for 21 days. This is defined as the invention plot.

[2] = system: Palmer amaranth, waterhemp, kochia, common ragweed or marestail; conditions: weeds and soybean, corn or cotton grown 14 days, spot foliar treatment of 20% of pot area, 560 g/ha dicamba acid equivalence, 150 L/ha, then grown 21 days; compared with plot without crop and plot with uniform blanket treatment at 560 g/ha
Protocol: as §1
A pot is filled with soil, and then Palmer amaranth, waterhemp, kochia, common ragweed, or marestail is seeded at a corner portion of the soil, and soybean (Genuity Roundup Ready 2 Xtend), corn (Genuity Roundup Ready 2), or cotton (Genuity Roundup Ready 2 Xtend) is seeded at another corner portion of the soil. […] Thereafter, the weeds and crops are grown in the greenhouse for 21 days. This is defined as the invention plot.

CN(CCCN)CCCN.COc1c(Cl)ccc(Cl)c1C(=O)O [dicamba-biproamine]
weed control effect [1]: excellent weed control effect | weed control effect [2]: excellent weed control effect
